In patent US6339073B1, “Uses of nicotinamide adenine dinucleotide and its derivatives for treatment of malignant and infectious diseases” (Oxigene, Inc., priority 1997, dated 2002):

Columns and labels:
K562 leukemic cells = format: cell-based
Text: Final methyl cellulose concentration was 0.6%.

HL60 cells = assay: cells
Method: Assessment of cytotoxicity in HL60 and K562 cells by clonogenic assay. The assay used is based on Schweitzer et al (Exper. Hematol. 21: 573-578, 1993). HL60 or K562 cells were cultured in 96-well microplates, at 800 cells per well, in a medium of 0.6% methyl cellulose (Methocel A4M, Dow Chemicals, USA), 10% fetal calf serum, RPMI 1640 (Life Technologies Ltd, UK), and gentamycin (50 μg/ml, Biological Industries, Israel). Microculture wells received 10 μl of NAD, NADP, NADH, ADP-ribose, nicotinamide (NAM), or 3-acetyl pyridine adenine dinucleotide solutions within which the final concentrations were adjusted to be between 0-5000 μM after addition of 190 μl cell-containing medium. Final methyl cellulose concentration was 0.6%. […] In the case of the radiosensitization experiments, the cells were irradiated with 1-2 Gy gamma radiation 15 minutes before addition of NAD. The central area of the bottom of each well (25% of total) was counted, and the counts of colonies and clusters expressed as % of control in order to avoid influences from inter-experimental baseline variations.

[1] = system: HL60 (human promyeloid leukemia line) cells; assay: Measurement of in vitro cytotoxicity by apoptosis; format: cell-based
Method: Cell culture. HL60 (human promyeloid leukemia line) cells were cultured at a density of 0.5×106 to 1.0×10^6 cells/ml in RPMI medium supplemented with 10% fetal calf serum (FCS) at 37° C. in a 5% CO2 atmosphere. The cells were harvested by centrifugation and resuspended in fresh medium at a concentration of 1×106 to 2×10^6 cells/ml for bioassay purposes.
Measurement of in vitro cytotoxicity by apoptosis. HL60 cells were exposed in culture to 2 Gy radiation, 100 μM nMCA (neutral metoclopramide, Neu-Sensamide), 0-5000 μM NAD±10 mM, and±NADase inhibitor, 3-acetyl pyridine adenine dinucleotide, given 30 minutes before drug treatment. The % apoptosis was determined after 6 hours. The cytotoxicity was evaluated by morphological identification of apoptotic cells (400 ×magnification with phase contrast microscopy) using trypan blue exclusion (0.1% isotonic solution+5% serum) after 5 minutes incubation at room temperature. Apoptotic cells were identified as having chromatin condensation, shrinkage, membrane blebbing, fragmentation and appearance of “apoptotic bodies” (Kaufman et al, Cancer Res. 53:3976-3985, 1993).

[2] = system: human lung adenocarcinoma (H2981) xenograft; assay: Evaluation of antitumor activity of NAD in vivo; design: species or system Scid mice; details: NAD i.p. 25 or 50 mg/kg, 21 days
Method: Evaluation of antitumor activity of NAD in vivo. Scid mice (n=10 per group) were transplanted by subcutaneous injection of H-2981 (human adenocarcinoma) tumor tissue suspension in the right flank. When the tumors grew to 80-100 mm2, the animals were divided into three groups: Group 1 was injected i.p. with saline, Group 2 was injected i.p. with NAD at 25 mg/kg dissolved in saline, and Group 3 was injected i.p. with NAD at 50 mg/kg. The treatment schedule was daily Monday through Friday with no treatment Saturday and Sunday for 21 days. Tumor volumes were recorded every other day for 21 days and converted to AUC tumor growth values as previously described in detail (Hua et al, Anti-Cancer Drugs 6: 451-455, 1995).

SMILES | clonogenic cytotoxicity (number of colonies) (K562 leukemic cells) | clonogenic cytotoxicity (number of colonies) (HL60 cells) | also measured
CC(=O)c1ccc[n+]([C@@H]2O[C@H](COP(=O)([O-])OP(=O)(O)OC[C@H]3O[C@@H](n4cnc5c(N)ncnc54)[C@H](O)[C@@H]3O)[C@@H](O)[C@H]2O)c1 [3-acetyl pyridine adenine dinucleotide, reference compound] | can nonetheless show cytotoxicity | can nonetheless show cytotoxicity | induction of apoptosis ([1]; % apoptosis after 6 hours, without NADase inhibitor): cannot induce cytoxicity by apoptosis
Nc1ncnc2c1ncn2[C@@H]1O[C@H](COP(=O)(O)OP(=O)(O)OC[C@H]2OC(O)[C@H](O)[C@@H]2O)[C@@H](O)[C@H]1O (some centres unmarked) [ADP-ribose] | the same | equally effective at inducing cytotoxicity | 
NC(=O)c1ccc[n+]([C@@H]2O[C@H](COP(=O)([O-])OP(=O)(O)OC[C@H]3O[C@@H](n4cnc5c(N)ncnc54)[C@H](O)[C@@H]3O)[C@@H](O)[C@H]2O)c1 [NAD, nicotinamide adenine dinucleotide] | the same |  | IC50 (HL60 cells; Homo sapiens, HL-60, 144 h, read-out: Doses that result in >50% inhibition of clonogenicity): < 500 µM; body weight loss or acute symptoms [2]: no significant body weight loss or acute symptoms
NC(=O)C1=CN([C@@H]2O[C@H](COP(=O)(O)OP(=O)(O)OC[C@H]3O[C@@H](n4cnc5c(N)ncnc54)[C@H](O)[C@@H]3O)[C@@H](O)[C@H]2O)C=CC1 [NADH] |  | equally effective at inducing cytotoxicity | 
NC(=O)c1cccnc1 [Nicotinamide, nicotinamide] |  | little to no effect on clonogenicity | 
CCN(CC)CCNC(=O)c1cc(Cl)c(N)cc1OC [nMCA, neutral metoclopramide] |  |  | effect of NADase inhibitor on drug induced apoptosis ([1]; 10 mM 3-acetyl pyridine adenine dinucleotide given 30 minutes before drug, 6 hours): unaffected by the presence of the NADase inhibitor
